Laboratory results published in ChEMBL document CHEMBL1156814, “Highly suppressing wild-type HIV-1 and Y181C mutant HIV-1 strains by 10-chloromethyl-11-demethyl-12-oxo-calanolide A with druggable profile” (J Med Chem, 2010).

Columns and labels:
[1] = tested on: Human immunodeficiency virus 1; assay: Antiviral activity against 100 TCID50 HIV1 infected in human TZM-b1 cells assessed as inhibition of viral replication by pseudovirus based assay; type: functional, organism-based
[2] = tested on: Mus musculus; assay: Toxicity in ICR mouse assessed as mortality at 1000 mg/kg, ig after 4 days administered as single dose; type: organism-based; set-up: dose 1000 mg/kg, route intragastric; settings: in vivo, po, 96 h
[3] = tested on: Mus musculus; assay: Toxicity in ICR mouse assessed as mortality at 1000 mg/kg, ig after 7 days administered as single dose; type: organism-based; set-up: dose 1000 mg/kg, route intragastric; settings: in vivo, po, 168 h
[4] = tested on: Mus musculus; assay: Toxicity in ICR mouse assessed as mortality at 1000 mg/kg, ig after 11 days administered as single dose; type: organism-based; set-up: dose 1000 mg/kg, route intragastric; settings: in vivo, po, 264 h
[5] = tested on: Mus musculus; assay: Toxicity in ICR mouse assessed as mortality at 1000 mg/kg, ig after 14 days administered as single dose; type: organism-based; set-up: dose 1000 mg/kg, route intragastric; settings: in vivo, po, 336 h
[6] = tested on: Mus musculus; assay: Toxicity in ICR mouse assessed as body weight at 4640 mg/kg, ig after 1 day administered as single dose (reference value: 21.1+/-0.9); type: organism-based; set-up: dose 4640 mg/kg, route intragastric; settings: in vivo, po, 24 h
[7] = tested on: Mus musculus; assay: Toxicity in ICR mouse assessed as body weight at 4640 mg/kg, ig after 4 days administered as single dose (reference value: 21.1+/-0.9); type: organism-based; set-up: dose 4640 mg/kg, route intragastric; settings: in vivo, po, 96 h
[8] = tested on: Mus musculus; assay: Toxicity in ICR mouse assessed as body weight at 4640 mg/kg, ig after 7 days administered as single dose (reference value: 21.1+/-0.9); type: organism-based; set-up: dose 4640 mg/kg, route intragastric; settings: in vivo, po, 168 h
[9] = tested on: Mus musculus; assay: Toxicity in ICR mouse assessed as body weight at 2150 mg/kg, ig after 1 day administered as single dose (reference value: 20.9+/-0.9); type: organism-based; set-up: dose 2150 mg/kg, route intragastric; settings: in vivo, po, 24 h
[10] = tested on: Mus musculus; assay: Toxicity in ICR mouse assessed as body weight at 2150 mg/kg, ig after 4 days administered as single dose (reference value: 20.9+/-0.9); type: organism-based; set-up: dose 2150 mg/kg, route intragastric; settings: in vivo, po, 96 h
[11] = tested on: Mus musculus; assay: Toxicity in ICR mouse assessed as body weight at 2150 mg/kg, ig after 7 days administered as single dose (reference value: 20.9+/-0.9); type: organism-based; set-up: dose 2150 mg/kg, route intragastric; settings: in vivo, po, 168 h
[12] = tested on: Mus musculus; assay: Toxicity in ICR mouse assessed as body weight at 1000 mg/kg, ig after 1 day administered as single dose (reference value: 21.2+/-0.8); type: organism-based; set-up: dose 1000 mg/kg, route intragastric; settings: in vivo, po, 24 h
[13] = tested on: Mus musculus; assay: Toxicity in ICR mouse assessed as body weight at 1000 mg/kg, ig after 4 days administered as single dose (reference value: 21.2+/-0.8); type: organism-based; set-up: dose 1000 mg/kg, route intragastric; settings: in vivo, po, 96 h
[14] = tested on: Mus musculus; assay: Toxicity in ICR mouse assessed as body weight at 1000 mg/kg, ig after 7 days administered as single dose (reference value: 21.2+/-0.8); type: organism-based; set-up: dose 1000 mg/kg, route intragastric; settings: in vivo, po, 168 h
[15] = Toxicity in African green monkey Vero cells; type: cell-based; settings: chlorocebus sabaeus
[16] = Selectivity index, ratio of IC50 for African green monkey Vero cells to EC50 for HIV1; type: toxicity, cell-based; settings: read-out: Selectivity Index
[17] = tested on: Human immunodeficiency virus 1; assay: Antiviral activity against HIV1 PNL4-3; type: functional, organism-based; settings: Human immunodeficiency virus 1, PNL4-3
[18] = tested on: Human immunodeficiency virus 1; assay: Antiviral activity against HIV1 with reverse transcriptase K103N mutation; type: functional, organism-based
[19] = tested on: Human immunodeficiency virus 1; assay: Antiviral activity against HIV1 with reverse transcriptase Y181C mutation; type: functional, organism-based
[20] = tested on: Human immunodeficiency virus 1; assay: Antiviral activity against HIV1 with reverse transcriptase Y181L mutation; type: functional, organism-based
[21] = tested on: Human immunodeficiency virus 1; assay: Antiviral activity against HIV1 with reverse transcriptase G190A mutation; type: functional, organism-based
[22] = tested on: Human immunodeficiency virus 1; assay: Antiviral activity against HIV1 with reverse transcriptase […] mutation; type: functional, organism-based
[23] = tested on: Rattus norvegicus; assay: AUC in Wistar rat at 50 mg/kg, po; type: ADME, organism-based, Plasma; set-up: dose 50 mg/kg, route oral; settings: in vivo
[24] = Mean residence time in Wistar rat at 50 mg/kg, po; type: ADME, organism-based; set-up: dose 50 mg/kg, route oral; settings: in vivo
[25] = Half life in Wistar rat at 50 mg/kg, po; type: ADME, organism-based; set-up: dose 50 mg/kg, route oral; settings: in vivo
[26] = Tmax in Wistar rat at 50 mg/kg, po; type: ADME, organism-based; set-up: dose 50 mg/kg, route oral; settings: in vivo
[27] = Cmax in Wistar rat at 50 mg/kg, po; type: ADME, organism-based; set-up: dose 50 mg/kg, route oral; settings: in vivo
[28] = tested on: Rattus norvegicus; assay: AUC in Wistar rat at 5 mg/kg, iv; type: ADME, organism-based, Plasma; set-up: dose 5 mg/kg, route intravenous; settings: in vivo
[29] = Mean residence time in Wistar rat at 5 mg/kg, iv; type: ADME, organism-based; set-up: dose 5 mg/kg, route intravenous; settings: in vivo
[30] = Half life in Wistar rat at 5 mg/kg, iv; type: ADME, organism-based; set-up: dose 5 mg/kg, route intravenous; settings: in vivo
[31] = Tmax in Wistar rat at 5 mg/kg, iv; type: ADME, organism-based; set-up: dose 5 mg/kg, route intravenous; settings: in vivo
[32] = Cmax in Wistar rat at 5 mg/kg, iv; type: ADME, organism-based; set-up: dose 5 mg/kg, route intravenous; settings: in vivo
[33] = Oral bioavailability in Wistar rat at 50 mg/kg; type: ADME, organism-based; settings: in vivo
[34] = tested on: Mus musculus; assay: Toxicity in ICR mouse assessed as mortality at 4640 mg/kg, ig after 1 day administered as single dose; type: organism-based; set-up: dose 4640 mg/kg, route intragastric; settings: in vivo, po, 24 h
[35] = tested on: Mus musculus; assay: Toxicity in ICR mouse assessed as mortality at 4640 mg/kg, ig after 4 days administered as single dose; type: organism-based; set-up: dose 4640 mg/kg, route intragastric; settings: in vivo, po, 96 h
[36] = tested on: Mus musculus; assay: Toxicity in ICR mouse assessed as mortality at 4640 mg/kg, ig after 7 days administered as single dose; type: organism-based; set-up: dose 4640 mg/kg, route intragastric; settings: in vivo, po, 168 h
[37] = tested on: Mus musculus; assay: Toxicity in ICR mouse assessed as mortality at 4640 mg/kg, ig after 11 days administered as single dose; type: organism-based; set-up: dose 4640 mg/kg, route intragastric; settings: in vivo, po, 264 h
[38] = tested on: Mus musculus; assay: Toxicity in ICR mouse assessed as mortality at 4640 mg/kg, ig after 14 days administered as single dose; type: organism-based; set-up: dose 4640 mg/kg, route intragastric; settings: in vivo, po, 336 h
[39] = tested on: Mus musculus; assay: Toxicity in ICR mouse assessed as mortality at 2150 mg/kg, ig after 1 day administered as single dose; type: organism-based; set-up: dose 2150 mg/kg, route intragastric; settings: in vivo, po, 24 h
[40] = tested on: Mus musculus; assay: Toxicity in ICR mouse assessed as mortality at 2150 mg/kg, ig after 4 days administered as single dose; type: organism-based; set-up: dose 2150 mg/kg, route intragastric; settings: in vivo, po, 96 h
[41] = tested on: Mus musculus; assay: Toxicity in ICR mouse assessed as mortality at 2150 mg/kg, ig after 7 days administered as single dose; type: organism-based; set-up: dose 2150 mg/kg, route intragastric; settings: in vivo, po, 168 h
[42] = tested on: Mus musculus; assay: Toxicity in ICR mouse assessed as mortality at 2150 mg/kg, ig after 11 days administered as single dose; type: organism-based; set-up: dose 2150 mg/kg, route intragastric; settings: in vivo, po, 264 h
[43] = tested on: Mus musculus; assay: Toxicity in ICR mouse assessed as mortality at 2150 mg/kg, ig after 14 days administered as single dose; type: organism-based; set-up: dose 2150 mg/kg, route intragastric; settings: in vivo, po, 336 h
[44] = tested on: Mus musculus; assay: Toxicity in ICR mouse assessed as mortality at 1000 mg/kg, ig after 1 day administered as single dose; type: organism-based; set-up: dose 1000 mg/kg, route intragastric; settings: in vivo, po, 24 h
[45] = Toxicity in human TZM-b1 cells; type: cell-based
[46] = Human immunodeficiency virus 1, TZM-b1, read-out: EC50

CCCc1cc(=O)oc2c3c(c4c(c12)OC(C)(C)C=C4)OC(CNS(=O)(=O)c1ccc(OC)cc1)CC3=O (stereo unspecified)
EC50 ([1]; tzm-b1): Not Active

CCCc1cc(=O)oc2c3c(c4c(c12)OC(C)(C)C=C4)OC(CN(C)C)CC3=O (stereo unspecified)
EC50 ([1]; tzm-b1): Not Active

CCCc1cc(=O)oc2c3c(c4c(c12)OC(C)(C)C=C4)OC(CCl)CC3=O (stereo unspecified)
Activity [2]: Non-toxic
Activity [3]: Non-toxic
Activity [4]: Non-toxic
Activity [5]: Non-toxic
Activity [6]: 23.2 g
Activity [7]: 27.5 g
Activity [8]: 29.9 g
Activity [9]: 23 g
Activity [10]: 28 g
Activity [11]: 31.4 g
Activity [12]: 23 g
Activity [13]: 28.5 g
Activity [14]: 31.1 g
EC50 [1, 46]: 7.4 nM
CC50 [15]: 10500 nM
selectivity ratio [16]: 1420
EC50 [17]: 7.4 nM
EC50 [18]: 316 nM
EC50 [19]: 0.46 nM
EC50 [20]: 6130 nM
EC50 [21]: 43.9 nM
EC50 [22]: 104 nM
AUC [23]: 4.7 ug/hr.ml
MRT [24]: 9.2 h
half-life [25]: 3.8 h
Tmax [26]: 8 h
Cmax [27]: 340 ng/mL
AUC [28]: 1.5 ug/hr.ml
MRT [29]: 1.7 h
half-life [30]: 1.9 h
Tmax [31]: 1.8 min
Cmax [32]: 930 ng/mL
bioavailability [33]: 32.7%
Activity [34]: Non-toxic
Activity [35]: Non-toxic
Activity [36]: Non-toxic
Activity [37]: Non-toxic
Activity [38]: Non-toxic
Activity [39]: Non-toxic
Activity [40]: Non-toxic
Activity [41]: Non-toxic
Activity [42]: Non-toxic
Activity [43]: Non-toxic
Activity [44]: Non-toxic

CCCc1cc(=O)oc2c3c(c4c(c12)OC(C)(C)C=C4)OC(C(F)(F)F)CC3=O (stereo unspecified)
EC50 [1, 46]: 14900 nM

CCCc1cc(=O)oc2c3c(c4c(c12)OC(C)(C)C=C4)OC(CN1CCCCC1)CC3=O (stereo unspecified)
EC50 ([1]; tzm-b1): Not Active

CCCc1cc(=O)oc2c3c(c4c(c12)OC(C)(C)C=C4)O[C@H]1C[C@H]1C3=O (relative stereo) [CIS-10,11-CYCLOPROPYL-12-OXO-CALANOLIDE A]
EC50 [1, 46]: 14.1 nM
CC50 [15]: 7140 nM
selectivity ratio [16]: 709

CCCc1cc(=O)oc2c3c(c4c(c12)OC(C)(C)C=C4)OC(CN)CC3=O (stereo unspecified) [1'-AMINEMETHYL-11-DEMETHYL-12-OXO-CALANOLIDE A]
EC50 ([1]; tzm-b1): Not Active

CCCc1cc(=O)oc2c3c(c4c(c12)OC(C)(C)C=C4)OC(CN=[N+]=[N-])CC3=O (stereo unspecified) [1'-AZIDEMETHYL-11-DEMETHYL-12-OXO-CALANOLIDE A]
EC50 ([1]; tzm-b1): Not Active
Activity [45]: Toxic

CCCc1cc(=O)oc2c3c(c4c(c12)OC(C)(C)C=C4)O[C@H](C)[C@@H](C)[C@@H]3O [CALANOLIDE A]
EC50 [1, 46]: 100 nM
selectivity ratio [16]: 16
EC50 [17]: 11.4 nM
EC50 [18]: 464 nM
EC50 [19]: 10600 nM
EC50 [20]: 7170 nM
EC50 [21]: 159 nM
EC50 [22]: 2.2 nM

Cc1ccnc2c1NC(=O)c1cccnc1N2C1CC1 [NEVIRAPINE]
EC50 [1, 46]: 8.2 nM
CC50 [15]: 27100 nM
selectivity ratio [16]: 3300
EC50 [17]: 97.5 nM
EC50 [18]: 13400 nM
EC50 [19]: 42.6 nM
EC50 [20]: 10500 nM
EC50 [21]: 385 nM
EC50 [22]: 6150 nM
